Toxic doses and inconclusive results are not listed.
Tested on: L1210 leukemia ip in BDF1 mice, survival T/C
Assay: NCI In Vivo Anticancer Drug Screen. Data for tumor model L1210 Leukemia (intraperitoneal) in B6D2F1 (BDF1) mice
Details: higher = longer survival
In short: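 Tumor was transplanted into mice, which were then dosed with test compound or vehicle alone. Survival was recorded for each group, and the treated figure was expressed relative to the control figure.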

[1] = endpoint: mean survival time, dose: 100.0 mg/kg/injection, schedule: Q01DX009 (ip), vehicle: saline with Tween-80
[2] = endpoint: mean survival time, dose: 200.0 mg/kg/injection, schedule: Q01DX009 (ip), vehicle: saline with Tween-80
[3] = endpoint: mean survival time, dose: 400.0 mg/kg/injection, schedule: Q01DX009 (ip), vehicle: saline with Tween-80
[4] = endpoint: mean survival time, dose: 100.0 mg/kg/injection, schedule: Q04DX003 (ip), vehicle: saline
[5] = endpoint: mean survival time, dose: 200.0 mg/kg/injection, schedule: Q04DX003 (ip), vehicle: saline
[6] = endpoint: mean survival time, dose: 400.0 mg/kg/injection, schedule: Q04DX003 (ip), vehicle: saline
[7] = endpoint: mean survival time, dose: 100.0 mg/kg/injection, schedule: Q04DX003 (ip), vehicle: saline with Tween-80
[8] = endpoint: mean survival time, dose: 200.0 mg/kg/injection, schedule: Q04DX003 (ip), vehicle: saline with Tween-80
[9] = endpoint: mean survival time, dose: 400.0 mg/kg/injection, schedule: Q04DX003 (ip), vehicle: saline with Tween-80
[10] = endpoint: mean survival time, dose: 100.0 mg/kg/injection, schedule: Q04DX003 (ip), vehicle: Klucel (hydroxypropylcellulose) (HPC)
[11] = endpoint: mean survival time, dose: 200.0 mg/kg/injection, schedule: Q04DX003 (ip), vehicle: Klucel (hydroxypropylcellulose) (HPC)
[12] = endpoint: mean survival time, dose: 400.0 mg/kg/injection, schedule: Q04DX003 (ip), vehicle: Klucel (hydroxypropylcellulose) (HPC)
[13] = endpoint: mean survival time, dose: 100.0 mg/kg/injection, schedule: Q01DX001 (ip), vehicle: other
[14] = endpoint: mean survival time, dose: 200.0 mg/kg/injection, schedule: Q01DX001 (ip), vehicle: other
[15] = endpoint: mean survival time, dose: 400.0 mg/kg/injection, schedule: Q01DX001 (ip), vehicle: other
[16] = endpoint: mean survival time, dose: 100.0 mg/kg/injection, schedule: Q01DX009 (ip), vehicle: Klucel (hydroxypropylcellulose) (HPC)
[17] = endpoint: mean survival time, dose: 200.0 mg/kg/injection, schedule: Q01DX009 (ip), vehicle: Klucel (hydroxypropylcellulose) (HPC)

O=C(Nc1ccc(S(=O)(=O)F)cc1)OCc1ccc([N+](=O)[O-])cc1
T/C (endpoint: mean survival time, dose: 100.0 mg/kg/injection, schedule: Q01DX001 (ip), vehicle: saline with Tween-80): 105 % of control
T/C (endpoint: mean survival time, dose: 200.0 mg/kg/injection, schedule: Q01DX001 (ip), vehicle: saline with Tween-80): 95 % of control
T/C (endpoint: mean survival time, dose: 400.0 mg/kg/injection, schedule: Q01DX001 (ip), vehicle: saline with Tween-80): 100 % of control

CCCN1C(c2ccccc2)=CN(Cc2ccccc2)C=C1c1ccccc1
T/C (endpoint: mean survival time, dose: 100.0 mg/kg/injection, schedule: Q04DX002 (ip), vehicle: Klucel (hydroxypropylcellulose) (HPC)): 95 % of control
T/C (endpoint: mean survival time, dose: 200.0 mg/kg/injection, schedule: Q04DX002 (ip), vehicle: Klucel (hydroxypropylcellulose) (HPC)): 103 % of control
T/C (endpoint: mean survival time, dose: 400.0 mg/kg/injection, schedule: Q04DX002 (ip), vehicle: Klucel (hydroxypropylcellulose) (HPC)): 106 % of control

Cc1cccnc1NC1=NCCO1
T/C [1]: 100 % of control
T/C [2]: 96 % of control
T/C [3]: 93 % of control

O=C(C[N+]12CC=C(CO)C1C(O)CC2)c1ccc(Br)cc1 (stereo not drawn)
T/C (endpoint: mean survival time, dose: 100.0 mg/kg/injection, schedule: Q01DX001 (ip), vehicle: saline): 104 % of control
T/C (endpoint: mean survival time, dose: 200.0 mg/kg/injection, schedule: Q01DX001 (ip), vehicle: saline): 101 % of control

CCN(CC)CCSc1ccnc2cc(Cl)ccc12
T/C [4]: 94 % of control
T/C [5]: 96 % of control
T/C [6]: 100 % of control

O=C(Nc1cccc2c1C(=O)c1cccc(Cl)c1C2=O)c1ccccc1
T/C [7]: 87 % of control
T/C [8]: 89 % of control
T/C [9]: 86 % of control

Cl
T/C (endpoint: mean survival time, dose: 50.0 mg/kg/injection, schedule: Q01DX009 (oral), vehicle: water): 97 % of control
T/C (endpoint: median survival time, dose: 15.0 mg/kg/injection, schedule: Q01DX009 (ip), vehicle: water): 87 % of control
T/C (endpoint: median survival time, dose: 30.0 mg/kg/injection, schedule: Q01DX009 (ip), vehicle: water): 100 % of control
T/C (endpoint: median survival time, dose: 60.0 mg/kg/injection, schedule: Q01DX009 (ip), vehicle: water): 112 % of control
T/C (endpoint: median survival time, dose: 90.0 mg/kg/injection, schedule: Q01DX009 (ip), vehicle: water): 112 % of control

CC(C)Nc1nc(NC(C)C)nc(NC(C)C)n1
T/C [10]: 92 % of control
T/C [11]: 87 % of control
T/C [12]: 90 % of control

O=C1C2CC3C=CC1C(C3)C2 (stereo not drawn) (tested in a mixture with another compound)
T/C (endpoint: mean survival time, dose: 100.0 mg/kg/injection, schedule: Q01DX001 (ip), vehicle: Klucel (hydroxypropylcellulose) (HPC)): 104 % of control
T/C (endpoint: mean survival time, dose: 200.0 mg/kg/injection, schedule: Q01DX001 (ip), vehicle: Klucel (hydroxypropylcellulose) (HPC)): 103 % of control
T/C (endpoint: mean survival time, dose: 400.0 mg/kg/injection, schedule: Q01DX001 (ip), vehicle: Klucel (hydroxypropylcellulose) (HPC)): 97 % of control

CCOC(=O)NC(C)(C)CN(C(=O)OCC)C(C)(C)CO
T/C [4]: 104 % of control
T/C [5]: 104 % of control

C1=C(C2=CCCCC2)CCCC1
T/C (endpoint: mean survival time, dose: 100.0 mg/kg/injection, schedule: Q01DX009 (ip), vehicle: acetone): 108 % of control
T/C [4]: 112 % of control
T/C (endpoint: mean survival time, dose: 200.0 mg/kg/injection, schedule: Q01DX009 (ip), vehicle: acetone): 100 % of control
T/C [5]: 104 % of control
T/C (endpoint: mean survival time, dose: 400.0 mg/kg/injection, schedule: Q01DX009 (ip), vehicle: acetone): 108 % of control
T/C [6]: 96 % of control

CN(C)CC(C)(C)C(=O)c1ccccc1
T/C (endpoint: mean survival time, dose: 25.0 mg/kg/injection, schedule: Q04DX002 (ip), vehicle: saline): 100 % of control
T/C (endpoint: mean survival time, dose: 50.0 mg/kg/injection, schedule: Q04DX002 (ip), vehicle: saline): 100 % of control
T/C (endpoint: mean survival time, dose: 100.0 mg/kg/injection, schedule: Q04DX002 (ip), vehicle: saline): 104 % of control

O=C(CC(=O)CC(O)(C(F)(F)F)C(F)(F)F)CC(O)(C(F)(F)F)C(F)(F)F
T/C (endpoint: mean survival time, dose: 2.5 mg/kg/injection, schedule: Q01DX009 (ip), vehicle: saline): 97 % of control
T/C (endpoint: mean survival time, dose: 5.0 mg/kg/injection, schedule: Q01DX009 (ip), vehicle: saline): 95 % of control

O=C1CCN2CCC(=O)c3c(Cl)ccc1c32
T/C [13]: 100 % of control
T/C [14]: 97 % of control
T/C [15]: 100 % of control

CCC(C)c1ccc(-c2ccc(OC)cc2)cc1 (stereo not drawn)
T/C [7]: 86 % of control
T/C [8]: 86 % of control

CC(=O)Nc1ccc2c(c1)C(NC(=O)/C=C\C(=O)O)c1ccccc1-2 (stereo not drawn)
T/C [7]: 111 % of control
T/C [8]: 98 % of control
T/C [9]: 107 % of control

O=C(O)c1ccccc1C(=O)Nc1ccc([N+](=O)[O-])cc1Cl
T/C (endpoint: mean survival time, dose: 50.0 mg/kg/injection, schedule: Q01DX009 (ip), vehicle: Klucel (hydroxypropylcellulose) (HPC)): 94 % of control
T/C [16]: 95 % of control
T/C [10]: 97 % of control
T/C [17]: 89 % of control
T/C [11]: 97 % of control

CCOC(=O)C(C(=O)OCC)=C(C)C
T/C [1]: 95 % of control
T/C [7]: 100 % of control
T/C [2]: 100 % of control
T/C [8]: 100 % of control
T/C [3]: 102 % of control
T/C [9]: 106 % of control

CC(C)N(C(=O)Nc1cccc(OC(=O)N(C)C)c1)C(C)C
T/C [7]: 94 % of control
T/C [8]: 88 % of control
T/C [9]: 96 % of control

CCC(CCC(C)C1CCC2C3CC=C4CC(OC(=O)CCC(=O)O)CCC4(C)C3CCC12C)C(C)C (stereo not drawn)
T/C [1]: 101 % of control
T/C [2]: 96 % of control
T/C [3]: 92 % of control

c1ccc2c(c1)-c1cccc3c1c-2cc1ccccc13
T/C [13]: 104 % of control
T/C [14]: 101 % of control
T/C [15]: 95 % of control

COc1cccc2c1C(=O)c1c(O)c3c(c(O)c1C2=O)C[C@@](O)(/C(C)=N\NC(N)=O)C[C@@H]3OC1CC(N)C(O)C(C)O1 (stereo partly drawn)
T/C (endpoint: mean survival time, dose: 1.5 mg/kg/injection, schedule: Q01DX009 (ip), vehicle: saline): 107 % of control
T/C (endpoint: mean survival time, dose: 2.0 mg/kg/injection, schedule: Q04DX003 (ip), vehicle: water): 110 % of control
T/C (endpoint: mean survival time, dose: 3.0 mg/kg/injection, schedule: Q01DX009 (ip), vehicle: saline): 112 % of control
T/C (endpoint: mean survival time, dose: 3.12 mg/kg/injection, schedule: Q01DX009 (ip), vehicle: saline): 113 % of control
T/C (endpoint: mean survival time, dose: 4.0 mg/kg/injection, schedule: Q04DX003 (ip), vehicle: water): 120 % of control
T/C (endpoint: mean survival time, dose: 6.0 mg/kg/injection, schedule: Q01DX009 (ip), vehicle: saline): 117 % of control
T/C (endpoint: mean survival time, dose: 6.25 mg/kg/injection, schedule: Q01DX009 (ip), vehicle: saline): 150 % of control
T/C (endpoint: mean survival time, dose: 8.0 mg/kg/injection, schedule: Q04DX003 (ip), vehicle: saline): 111 % of control
T/C (endpoint: mean survival time, dose: 12.5 mg/kg/injection, schedule: Q01DX009 (ip), vehicle: saline): 155 % of control
T/C (endpoint: mean survival time, dose: 12.5 mg/kg/injection, schedule: Q04DX003 (ip), vehicle: saline): 124 % of control
T/C (endpoint: mean survival time, dose: 24.0 mg/kg/injection, schedule: Q01DX009 (ip), vehicle: saline): 124 % of control
T/C (endpoint: mean survival time, dose: 50.0 mg/kg/injection, schedule: Q04DX003 (ip), vehicle: saline): 157 % of control
T/C (endpoint: mean survival time, dose: 125.0 micrograms/kg/injection, schedule: Q04DX003 (ip), vehicle: water): 105 % of control
T/C (endpoint: mean survival time, dose: 250.0 micrograms/kg/injection, schedule: Q04DX003 (ip), vehicle: water): 107 % of control
T/C (endpoint: mean survival time, dose: 500.0 micrograms/kg/injection, schedule: Q04DX003 (ip), vehicle: water): 108 % of control
T/C (endpoint: mean survival time, dose: 1000.0 micrograms/kg/injection, schedule: Q04DX003 (ip), vehicle: water): 107 % of control
T/C (endpoint: mean survival time, dose: 2000.0 micrograms/kg/injection, schedule: Q04DX003 (ip), vehicle: water): 110 % of control

CC(C)C(C(=O)O)(c1ccccc1)c1ccccc1
T/C [4]: 101 % of control
T/C [5]: 103 % of control
T/C [6]: 97 % of control

C/C=N/NC(=O)c1ccc[n+](C)c1
T/C (endpoint: mean survival time, dose: 50.0 mg/kg/injection, schedule: Q01DX009 (ip), vehicle: saline): 93 % of control
T/C (endpoint: mean survival time, dose: 100.0 mg/kg/injection, schedule: Q01DX009 (ip), vehicle: saline): 96 % of control
T/C (endpoint: mean survival time, dose: 200.0 mg/kg/injection, schedule: Q01DX009 (ip), vehicle: saline): 96 % of control

O=[N+]([O-])c1ccc(/C=C/c2ccccc2Br)cc1
T/C [16]: 106 % of control
T/C [10]: 100 % of control
T/C [17]: 97 % of control
T/C [11]: 98 % of control
T/C (endpoint: mean survival time, dose: 400.0 mg/kg/injection, schedule: Q01DX009 (ip), vehicle: Klucel (hydroxypropylcellulose) (HPC)): 97 % of control
T/C [12]: 98 % of control

— PubChem BioAssay AID248 (DTP/NCI, 2004)
